Measured values published in patent publication US11753407B2, “Compounds for treating spinal muscular atrophy” (PTC Therapeutics, Inc., priority 2012, dated 2023).

How the values were obtained:
[1] = tested on: SMN2 minigene mRNA (SMN2-A minigene) in HEK293H cells; assay: SMN2 minigene mRNA splicing RT-qPCR assay in cultured cells; type: cell-based, human; conditions: Homo sapiens, HEK293-H; concentration increasing full length SMN2 mRNA 1.5-fold relative to vehicle-treated cells; HEK293H cells with SMN2-A minigene, 24 hours, 7-point concentration data; read-out: EC1.5x for production of full length SMN2 mRNA
In short: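 Stable SMN2-A minigene HEK293H; cpd 7-pt 3.16-fold series, 200× in DMSO, 24 h, 37 °C, n=2. Lysates → multiplex RT-qPCR (minigene FL + GAPDH), efficiency-corrected ΔΔCt vs vehicle. EC1.5× = 1.5-fold FL mRNA gain.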

[2] = tested on: Smn protein in SMA patient fibroblast cells (GM03813); assay: Smn protein assay in cultured cells (SMN HTRF); type: cell-based, human; conditions: SMA patient fibroblast cells, 48 hours; for EC1.5x for Smn protein expression: 7-point concentration curve, SMN HTRF, concentration producing 1.5 times Smn protein vs DMSO vehicle control; for maximum fold (Fold) increase of Smn protein: 7-point concentration data, fold relative to vehicle control
In short: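 Fibroblasts, SMA patient; 5,000 cells/well; 7-pt curve, 3.16-fold serial dilution; 48 h, 37 °C, 5% CO2; RIPA lysis 1 h RT; anti-SMN d2 + kryptate overnight RT; HTRF 665/620 nm; fold vs DMSO; EC1.5×, max fold.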

SMILES	EC (1.5-fold increase) [1]	EC1.5x for Smn protein expression [2]	maximum fold (Fold) increase of Smn protein [2]	melting point
CCc1nc(C)cn2nc(-c3cc(=O)n4cc(C5=CC(C)(C)NC(C)(C)C5)ccc4n3)cc12 [Compound 745, 2-(4-ethyl-6-methylpyrazolo[1,5-a]pyrazin-2-yl)-7-(2,2,6,6-tetramethyl-1,2,3,6-tetrahydropyridin-4-yl)-4H-pyrido[1,2-a]pyrimidin-4-one]	< 0.1 µM	**** (an EC1.5x≤0.3 μM is indicated by four stars (****))	***** (a fold increase >1.65 is indicated by five stars (*****))	255 to 258 °C
Cc1cn2nc(-c3cc(=O)n4cc(N5C[C@H]6CNC[C@H]6C5)ccc4n3)cc2c(C)n1 [Compound 746, 2-(4,6-dimethylpyrazolo[1,5-a]pyrazin-2-yl)-7-[(3aR,6aS)-hexahydropyrrolo[3,4-c]pyrrol-2(1H)-yl]-4H-pyrido[1,2-a]pyrimidin-4-one]	< 0.1 µM	**** (an EC1.5x≤0.3 μM is indicated by four stars (****))	***** (a fold increase >1.65 is indicated by five stars (*****))	239 to 242 °C
CCc1nc(C)cn2nc(-c3cc(=O)n4cc(N5C[C@H]6CNC[C@H]6C5)ccc4n3)cc12 [Compound 747, 2-(4-ethyl-6-methylpyrazolo[1,5-a]pyrazin-2-yl)-7-[(3aR,6aS)-hexahydropyrrolo[3,4-c]pyrrol-2(1H)-yl]-4H-pyrido[1,2-a]pyrimidin-4-one]	< 0.1 µM	**** (an EC1.5x≤0.3 μM is indicated by four stars (****))	***** (a fold increase >1.65 is indicated by five stars (*****))	246 to 249 °C
CCc1nc(C)cn2cc(-c3cc(=O)n4cc(N5C[C@@H](C)N[C@@H](C)C5)ccc4n3)cc12 [Compound 748, 7-[(3R,5S)-3,5-dimethylpiperazin-1-yl]-2-(1-ethyl-3-methylpyrrolo[1,2-a]pyrazin-7-yl)-4H-pyrido[1,2-a]pyrimidin-4-one]	< 0.1 µM	**** (an EC1.5x≤0.3 μM is indicated by four stars (****))	***** (a fold increase >1.65 is indicated by five stars (*****))	238 to 241 °C
CCc1nc(C)cn2cc(-c3cc(=O)n4cc(N5CCCNCC5)ccc4n3)cc12 [Compound 749, 7-(1,4-diazepan-1-yl)-2-(1-ethyl-3-methylpyrrolo[1,2-a]pyrazin-7-yl)-4H-pyrido[1,2-a]pyrimidin-4-one]	< 0.1 µM	**** (an EC1.5x≤0.3 μM is indicated by four stars (****))	***** (a fold increase >1.65 is indicated by five stars (*****))	200 to 202 °C
Cc1cc(-c2cc(=O)n3cc(N4CCN[C@@H](C)C4)ccc3n2)cc2cn(C)nc12 [Compound 750, 2-(2,7-dimethyl-2H-indazol-5-yl)-7-[(3S)-3-methylpiperazin-1-yl]-4H-pyrido[1,2-a]pyrimidin-4-one]	< 0.1 µM	**** (an EC1.5x≤0.3 μM is indicated by four stars (****))	***** (a fold increase >1.65 is indicated by five stars (*****))	308 to 310 °C
Cc1cc(-c2cc(=O)n3cc(N4CCN(C)[C@@H](C)C4)ccc3n2)cc2cn(C)nc12 [Compound 751, 2-(2,7-dimethyl-2H-indazol-5-yl)-7-[(3S)-3,4-dimethylpiperazin-1-yl]-4H-pyrido[1,2-a]pyrimidin-4-one]	< 0.1 µM	**** (an EC1.5x≤0.3 μM is indicated by four stars (****))	***** (a fold increase >1.65 is indicated by five stars (*****))	202 to 204 °C
Cc1cc(-c2cc(=O)n3cc(C4CCN(C)CC4)ccc3n2)cc2cn(C)nc12 [Compound 752, 2-(2,7-dimethyl-2H-indazol-5-yl)-7-(1-methylpiperidin-4-yl)-4H-pyrido[1,2-a]pyrimidin-4-one]	< 0.1 µM	**** (an EC1.5x≤0.3 μM is indicated by four stars (****))	***** (a fold increase >1.65 is indicated by five stars (*****))	208 to 210 °C
CCN1CCC(c2ccc3nc(-c4cc(C)c5nn(C)cc5c4)cc(=O)n3c2)CC1 [Compound 753, 2-(2,7-dimethyl-2H-indazol-5-yl)-7-(1-ethylpiperidin-4-yl)-4H-pyrido[1,2-a]pyrimidin-4-one]	< 0.1 µM	**** (an EC1.5x≤0.3 μM is indicated by four stars (****))	***** (a fold increase >1.65 is indicated by five stars (*****))	162 to 164 °C
Cc1cc(N2CCNCC2)cn2c(=O)cc(-c3ccc4nn(C)cc4c3)nc12 [Compound 754, 9-methyl-2-(2-methyl-2H-indazol-5-yl)-7-(piperazin-1-yl)-4H-pyrido[1,2-a]pyrimidin-4-one]	< 0.1 µM	**** (an EC1.5x≤0.3 μM is indicated by four stars (****))	***** (a fold increase >1.65 is indicated by five stars (*****))	233 to 243 °C
Cc1cn2nc(-c3cc(=O)n4cc(N5CC(N(C)C)C5)ccc4n3)cc2c(C)n1 [Compound 757, 7-[3-(dimethylamino)azetidin-1-yl]-2-(4,6-dimethylpyrazolo[1,5-a]pyrazin-2-yl)-4H-pyrido[1,2-a]pyrimidin-4-one]	0.3 to 1 µM	*** (an EC1.5× between >0.3 μM and ≤1 μM is indicated by three stars (***))	**** (a fold increase between >1.5 and ≤1.65 is indicated by four stars (****))	226 to 228 °C
CCN(CC)C1CN(c2ccc3nc(-c4cc5c(C)nc(C)cn5n4)cc(=O)n3c2)C1 [Compound 758, 7-[3-(diethylamino)azetidin-1-yl]-2-(4,6-dimethylpyrazolo[1,5-a]pyrazin-2-yl)-4H-pyrido[1,2-a]pyrimidin-4-one]	0.3 to 1 µM		*** (a fold increase between >1.35 and ≤1.5 is indicated by three stars (***))	231 to 233 °C
Cc1cn2nc(-c3cc(=O)n4cc(N5CC(N6CCCC6)C5)ccc4n3)cc2c(C)n1 [Compound 759, 2-(4,6-dimethylpyrazolo[1,5-a]pyrazin-2-yl)-7-[3-(pyrrolidin-1-yl)azetidin-1-yl]-4H-pyrido[1,2-a]pyrimidin-4-one]	0.1 to 0.3 µM	*** (an EC1.5× between >0.3 μM and ≤1 μM is indicated by three stars (***))	***** (a fold increase >1.65 is indicated by five stars (*****))	235 to 237 °C
CCc1nc(C)cn2nc(-c3cc(=O)n4cc(N5CCCNCC5)ccc4n3)cc12 [Compound 760, 7-(1,4-diazepan-1-yl)-2-(4-ethyl-6-methylpyrazolo[1,5-a]pyrazin-2-yl)-4H-pyrido[1,2-a]pyrimidin-4-one]	< 0.1 µM	**** (an EC1.5x≤0.3 μM is indicated by four stars (****))	***** (a fold increase >1.65 is indicated by five stars (*****))	212 to 214 °C
CCCc1nc(C)cn2nc(-c3cc(=O)n4cc(N5C[C@H]6CNC[C@H]6C5)ccc4n3)cc12 [Compound 761, 7-[(3aR,6aS)-hexahydropyrrolo[3,4-c]pyrrol-2(1H)-yl]-2-(6-methyl-4-propylpyrazolo[1,5-a]pyrazin-2-yl)-4H-pyrido[1,2-a]pyrimidin-4-one]	< 0.1 µM	**** (an EC1.5x≤0.3 μM is indicated by four stars (****))	***** (a fold increase >1.65 is indicated by five stars (*****))	212 to 214 °C
CCCc1nc(C)cn2nc(-c3cc(=O)n4cc(C5=CCNCC5)ccc4n3)cc12 [Compound 762, 2-(6-methyl-4-propylpyrazolo[1,5-a]pyrazin-2-yl)-7-(1,2,3,6-tetrahydropyridin-4-yl)-4H-pyrido[1,2-a]pyrimidin-4-one]	< 0.1 µM	**** (an EC1.5x≤0.3 μM is indicated by four stars (****))	***** (a fold increase >1.65 is indicated by five stars (*****))	257 to 260 °C
CCc1nc(C)cn2nc(-c3cc(=O)n4cc(C5=CCNCC5)ccc4n3)cc12 [Compound 763, 2-(4-ethyl-6-methylpyrazolo[1,5-a]pyrazin-2-yl)-7-(1,2,3,6-tetrahydropyridin-4-yl)-4H-pyrido[1,2-a]pyrimidin-4-one]	< 0.1 µM	**** (an EC1.5x≤0.3 μM is indicated by four stars (****))	***** (a fold increase >1.65 is indicated by five stars (*****))	287 to 289 °C
